Reference: ChEMBL document CHEMBL1201862, “PubChem BioAssay data set” (2004)
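A five-concentration, 48-hour dose response in 96-well plates underlies each endpoint, interpolated linearly between surrounding concentrations. GI50 is the concentration that inhibits growth by half.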 Active and inactive are the calls of the source. Rule as the data show it: active = GI50 up to about 1.1 µM and inactive = higher.

Experiments:
Test in all cases: growth of human tumour cells (NCI), 48 h
SR = tested on: SR
T47D = tested on: T47D
DU-145 = tested on: DU-145
A498 = tested on: A498
COLO 205 = tested on: COLO 205
PC-3 = tested on: PC-3
CAKI-1 = tested on: CAKI-1
ACHN = tested on: ACHN
MDA-N = tested on: MDA-N
MOLT-4 = tested on: MOLT-4
UO-31 = tested on: UO-31
SNB-75 = tested on: SNB-75
SF-539 = tested on: SF-539
BT-549 = tested on: BT-549
Hs-578T = tested on: Hs-578T
MDA-MB-231 = tested on: MDA-MB-231
NCI-H23 = tested on: NCI-H23
NCI-H522 = tested on: NCI-H522
MDA-MB-435 = tested on: MDA-MB-435

Measured: GI50

CN1c2ccccc2SC2C(c3ccccc3)=NOC21 (configuration not stated)
inactive: SR 62.1 µM | T47D 21.5 µM | DU-145 65.6 µM | A498 28.4 µM | COLO 205 22.7 µM | PC-3 18 µM | CAKI-1 40.6 µM | ACHN 52.6 µM | MDA-N 22.9 µM | MOLT-4 30.4 µM | UO-31 35.1 µM | SNB-75 16 µM | SF-539 27.7 µM | BT-549 26.6 µM | Hs-578T 29 µM | MDA-MB-231 27 µM | NCI-H23 23.1 µM | NCI-H522 30.1 µM

CC(C)=CCc1c(O)c(CC2=C(O)C(CC=C(C)C)(C(=O)C(C)C)C(O)=C(C)C2=O)c(O)c(C(=O)C(C)C)c1O (configuration not stated)
inactive: MDA-MB-435 16.2 µM | T47D 8.45 µM | DU-145 18.9 µM | A498 9.57 µM | COLO 205 13 µM | PC-3 5.66 µM | CAKI-1 17.5 µM | ACHN 11.8 µM | MDA-N 14.3 µM | MOLT-4 2.31 µM | UO-31 7.59 µM | SNB-75 13.6 µM | SF-539 13.8 µM | BT-549 11.6 µM | Hs-578T 9.89 µM | MDA-MB-231 17 µM | NCI-H23 8.43 µM | NCI-H522 6.55 µM

Cn1c(=O)c2nc3c(=O)n(C)c(=O)n(CC(N)=O)c3nc2n(C)c1=O
inactive: MDA-MB-435 > 100 µM | SR > 100 µM | T47D > 100 µM | DU-145 > 100 µM | A498 > 100 µM | COLO 205 > 100 µM | PC-3 > 100 µM | CAKI-1 > 100 µM | ACHN > 100 µM | MDA-N > 100 µM | UO-31 > 100 µM | SNB-75 > 100 µM | SF-539 > 100 µM | BT-549 > 100 µM | Hs-578T > 100 µM | MDA-MB-231 > 100 µM | NCI-H23 > 100 µM | NCI-H522 > 100 µM

COc1ccc(C2=C(N)c3c(Cl)cccc3C2=O)cc1
inactive: MDA-MB-435 > 100 µM | T47D 78 µM | DU-145 > 100 µM | A498 > 100 µM | COLO 205 > 100 µM | PC-3 > 100 µM | CAKI-1 > 100 µM | ACHN > 100 µM | MDA-N > 100 µM | MOLT-4 95.1 µM | SNB-75 > 100 µM | SF-539 > 100 µM | BT-549 > 100 µM | Hs-578T 26.1 µM | MDA-MB-231 80.2 µM | NCI-H23 32.6 µM | NCI-H522 > 100 µM

CCCNC(C#N)c1ccc(C(C#N)NCCC)cc1 (configuration not stated)
inactive: MDA-MB-435 76.4 µM | T47D > 100 µM | DU-145 > 100 µM | A498 > 100 µM | COLO 205 81.3 µM | PC-3 > 100 µM | CAKI-1 > 100 µM | ACHN > 100 µM | MDA-N 36.3 µM | MOLT-4 37.3 µM | UO-31 > 100 µM | SF-539 > 100 µM | BT-549 > 100 µM | Hs-578T > 100 µM | MDA-MB-231 > 100 µM | NCI-H23 > 100 µM | NCI-H522 > 100 µM

CCOC(=O)c1c(-c2cccc(Cl)c2)c(C(=O)OC)c(C)c2sc(C=O)nc12
inactive: MDA-MB-435 19.6 µM | T47D 14.8 µM | DU-145 17.7 µM | COLO 205 17.5 µM | PC-3 16.4 µM | CAKI-1 17.5 µM | ACHN 16.8 µM | MDA-N 19.9 µM | MOLT-4 12.8 µM | UO-31 17.8 µM | SNB-75 21.6 µM | SF-539 18.1 µM | BT-549 17.3 µM | Hs-578T 21 µM | MDA-MB-231 15.6 µM | NCI-H23 51.9 µM | NCI-H522 16 µM

Oc1nc(-c2ccc3ccccc3c2)nc2ccccc12
inactive: MDA-MB-435 61.9 µM | SR 20.4 µM | T47D 64 µM | DU-145 > 100 µM | A498 32.9 µM | COLO 205 > 100 µM | PC-3 > 100 µM | CAKI-1 75 µM | ACHN 13.9 µM | MDA-N 49.2 µM | MOLT-4 > 100 µM | UO-31 23.4 µM | SNB-75 4.53 µM | BT-549 > 100 µM | Hs-578T 24.3 µM | MDA-MB-231 29 µM | NCI-H23 58.5 µM | NCI-H522 73.8 µM

CC1(C)C=CC(=O)C(O)C(C)(C)C1=O (configuration not stated)
inactive: MDA-MB-435 53.3 µM | T47D > 100 µM | DU-145 > 100 µM | A498 > 100 µM | COLO 205 > 100 µM | PC-3 > 100 µM | CAKI-1 > 100 µM | ACHN 98.4 µM | MDA-N 52.8 µM | MOLT-4 7.05 µM | UO-31 > 100 µM | SNB-75 38.7 µM | SF-539 73.6 µM | BT-549 68.1 µM | Hs-578T 28.8 µM | MDA-MB-231 > 100 µM | NCI-H23 76.7 µM | NCI-H522 19.9 µM

N#Cc1nnn(-c2ccc(Br)cc2)c1O
inactive: MDA-MB-435 > 100 µM | T47D > 100 µM | DU-145 > 100 µM | A498 > 100 µM | COLO 205 > 100 µM | PC-3 > 100 µM | CAKI-1 > 100 µM | ACHN > 100 µM | MDA-N 46.9 µM | MOLT-4 10 µM | UO-31 > 100 µM | SNB-75 > 100 µM | SF-539 > 100 µM | BT-549 > 100 µM | Hs-578T > 100 µM | MDA-MB-231 > 100 µM | NCI-H23 > 100 µM | NCI-H522 > 100 µM

CC(=O)[C@H]1CC[C@@H]2[C@]1(C)CC=C1[C@]23C=C[C@]2(C[C@@H](O)CC[C@]12C)C(C(=O)O)C3C(=O)O (some centres not stated)
inactive: MDA-MB-435 > 100 µM | T47D > 100 µM | DU-145 > 100 µM | A498 > 100 µM | COLO 205 > 100 µM | PC-3 > 100 µM | CAKI-1 > 100 µM | ACHN > 100 µM | MDA-N > 100 µM | MOLT-4 > 100 µM | UO-31 > 100 µM | SNB-75 > 100 µM | SF-539 > 100 µM | BT-549 > 100 µM | Hs-578T > 100 µM | MDA-MB-231 > 100 µM | NCI-H23 > 100 µM | NCI-H522 > 100 µM

COc1cc(C2C3=C(N=C4SC(C(C)=O)=C(C)N42)c2ccccc2CC3)cc(OC)c1OC (configuration not stated)
inactive: MDA-MB-435 57 µM | T47D 11.4 µM | DU-145 > 100 µM | A498 > 100 µM | COLO 205 54.3 µM | PC-3 > 100 µM | ACHN > 100 µM | MDA-N 28.7 µM | MOLT-4 > 10 µM | UO-31 > 100 µM | SNB-75 53.7 µM | SF-539 > 100 µM | BT-549 > 100 µM | Hs-578T 50.4 µM | MDA-MB-231 49.2 µM | NCI-H23 > 100 µM

Oc1ccc(C(=C(Br)c2ccccc2)c2ccc(O)cc2)cc1
inactive: MDA-MB-435 1.52 µM | T47D 10.7 µM | DU-145 13.1 µM | A498 18.3 µM | COLO 205 3.73 µM | PC-3 7.16 µM | CAKI-1 16.6 µM | ACHN 9.16 µM | MDA-N 1.83 µM | MOLT-4 5.48 µM | UO-31 6.59 µM | SF-539 6.18 µM | BT-549 4.44 µM | Hs-578T 4.83 µM | MDA-MB-231 10.9 µM | NCI-H23 10.4 µM | NCI-H522 4.47 µM

CCC(=O)OCN(C)c1nc(N(C)COC(=O)CC)nc(N(C)COC(=O)CC)n1
inactive: MDA-MB-435 > 100 µM | SR 26.7 µM | T47D 35.3 µM | DU-145 37 µM | A498 49 µM | COLO 205 24.3 µM | PC-3 27.4 µM | CAKI-1 63.8 µM | MDA-N 33.3 µM | MOLT-4 20.8 µM | UO-31 56.6 µM | SNB-75 > 100 µM | BT-549 32.9 µM | Hs-578T > 100 µM | MDA-MB-231 57.4 µM | NCI-H23 > 100 µM

Cc1ccnn1CCc1ccc(Cl)cc1Cl
inactive: MDA-MB-435 38.2 µM | SR 21.9 µM | T47D 8.97 µM | DU-145 37.4 µM | COLO 205 35 µM | PC-3 27 µM | CAKI-1 28.1 µM | ACHN 27.9 µM | MDA-N 44.3 µM | MOLT-4 13.1 µM | UO-31 4.63 µM | SNB-75 14.5 µM | SF-539 18.2 µM | BT-549 13.6 µM | Hs-578T 22.9 µM | MDA-MB-231 29.3 µM | NCI-H23 24.8 µM

C[C@]12CC[C@H](O)CC1=CC[C@@H]1[C@@H]2CC[C@]2(C)C(=O)CC[C@@H]12 [PRASTERONE]
inactive: MDA-MB-435 > 100 µM | SR > 100 µM | T47D > 100 µM | DU-145 > 100 µM | COLO 205 > 100 µM | PC-3 > 100 µM | CAKI-1 > 100 µM | ACHN > 100 µM | MDA-N > 100 µM | MOLT-4 > 100 µM | UO-31 > 100 µM | SNB-75 > 100 µM | SF-539 > 100 µM | BT-549 > 100 µM | Hs-578T 45.6 µM | NCI-H23 > 100 µM | NCI-H522 > 100 µM

COc1cc(C(=O)C2CC3(CCC2(O)c2cc(OC)c(OC)c(OC)c2)CC(=O)Nc2ccccc2C3=O)cc(OC)c1OC (configuration not stated)
inactive: MDA-MB-435 > 100 µM | SR 29.6 µM | T47D 36.6 µM | DU-145 > 100 µM | A498 > 100 µM | COLO 205 26.5 µM | PC-3 42.6 µM | CAKI-1 > 100 µM | MDA-N > 100 µM | MOLT-4 33 µM | UO-31 33.7 µM | SNB-75 24.5 µM | SF-539 > 100 µM | BT-549 > 100 µM | Hs-578T 91 µM | MDA-MB-231 > 100 µM | NCI-H23 88.9 µM
